Results reported in patent US7855199B2, “Heterocyclic compound and anti-malignant-tumor agent containing the same as active ingredient” (Zenyaku Kogyo Kabushiki Kaisha, priority 2004, dated 2010).

Experiments:
[1] = Test 1 (Pharmacokinetics Study), oral administration to mice, serum drug concentration by HPLC; type: in vivo; conditions: male, BDF1, mouse, oral 200 mg/kg, mice fasting for 16 hours, 1-24 hours after administration, read-out: AUC1h-24h
Procedure: Pharmacokinetics study was conducted, using six-week-old BDF1 male mice. Test compound was dissolved in dichloromethane together with hydroxypropyl cellulose (low-molecular weight)(HPC(L)) 2.5 times as much as the drug weight, dried under reduced pressure and was suspended in distilled water so as to have the drug concentration of 20 mg/mL. The test compound was forcedly orally administered to mice fasting for 16 hours with dose of 200 mg/kg. One, two, four, eight and 24 hours after the administration, blood was collected from orbit of two mice to obtain serum 100 μL of the obtained serum was added with internal standard solution and 1 mL of distilled water and then test compound and internal standard substance were extracted from the resulting mixture by diethyl ether. The organic layers were evaporated to dryness under reduced pressure and residues were dissolved in eluent to obtain HPLC measurement sample. The analysis was performed by HPLC with reversed-phase column and the eluent used was acetonitrile-phosphate buffer (pH 2.5). The drug concentration in the test serum was calculated by the calibration curve (Y=aX+b) obtained from standard substance. Area under the curve (AUC1h-24h) was calculated from the drug concentration in the serum, using WinNonlin (produced by the firm Pharsight, ver. 4.01).

[2] = system: Human colon cancer WiDr; assay: in vitro antitumor test (50% growth inhibition concentration); type: cell-based
Procedure: This was also supported by the results of Table 3 below showing test results of in vitro antitumor test (comparative tests in 50% growth inhibition concentrations (GI50 μM) to Human colon cancer WiDr).

[3] = system: Human colon cancer WiDr; assay: Test 2 (In Vivo Antitumor Test), subcutaneous WiDr tumor in nude mice; parameters: species or system mutant BALB/c nude mice; key to evaluation: Cases where T/C (%) of the last day was less than 50% and U-assay of Mann-Whitney revealed significant difference with one-sided risk rate of 1% were evaluated to be effective (+); ineffective (−); conditions: oral 100 mg/kg once a day, six times a week, for two weeks; for evaluation: T/C of the last day and Mann-Whitney U-assay; for T/C (%): relative tumor growth rate, last day
Procedure: Human colon cancer WiDr was grown as subcutaneous tumor in mutant BALB/c nude mice. 2-mm-cube tumor fragments were transplanted subcutaneously into left flank of the nude mice. When the tumor reached logarithmic growth phase, mice were divided randomly into test groups consisting five mice per group. The samples prepared by dissolving test compound in dichloromethane with a ratio of the test compound to HPC(L) being 1:2.5, dried under reduced pressure and suspended in distilled water. The samples were then orally administered at a rate of test compound 100 mg/kg, once a day and six times a week in total, for two weeks. The length and width of the tumor mass were measured on a daily basis to calculate tumor volume. The tumor volume at each measured day was divided by that at the start day of the sample administration to calculate relative tumor growth rate; and the relative tumor growth rate of the treated groups (T) and that of the control group (C) were used to calculate T/C(%).

Row | AUC(0-t) [1] [ng·h/mL] | melting point [°C] | GI50 [2] [nM] | Structure (SMILES) | evaluation [3] | T/C (%) [3] [%]
1 | 87000 | 176 to 178 |  | COc1cccc2c1nc(C(F)F)n2-c1nc(N2CCOCC2)cc(N2CCO[C@@H](C)[C@H]2C)n1 (relative stereo) [compound 3, 2-(2-difluoromethyl-4-methoxybenzimidazol-1-yl)-4-(cis-2,3-dimethylmorpholino)-6-morpholinopyrimidine] |  | 
2 | 138000 |  |  | COc1cccc2c1nc(C(F)F)n2-c1nc(N2CCOCC2)cc(N2C[C@H](C)O[C@@H](C)C2)n1 (relative stereo) [compound 4, 2-(2-difluoromethyl-4-methoxybenzimidazol-1-yl)-4-(trans-2,6-dimethylmorpholino)-6-morpholinopyrimidine] |  | 
3 | 17000 |  |  | C[C@@H]1OCCN(c2cc(N3CCOCC3)nc(-n3c(C(F)F)nc4c(O)cccc43)n2)[C@@H]1C (relative stereo) [compound C, 2-(2-difluoromethyl-4-hydroxybenzimidazol-1-yl)-4-(cis-2,3-dimethylmorpholino)-6-morpholinopyrimidine, reference compound] |  | 
4 | 68000 |  |  | C[C@H]1CN(c2cc(N3CCOCC3)nc(-n3c(C(F)F)nc4c(O)cccc43)n2)C[C@H](C)O1 (relative stereo) [compound D, 2-(2-difluoromethyl-4-hydroxybenzimidazol-1-yl)-4-(trans-2,6-dimethylmorpholino)-6-morpholinopyrimidine, reference compound] |  | 
5 | 332000 |  | 450 | COc1cccc2c1nc(C(F)F)n2-c1nc(N2CCOCC2)cc(N2C[C@@H](C)O[C@@H](C)C2)n1 [compound 1, 2-(2-difluoromethyl-4-methoxybenzimidazol-1-yl)-4-(cis-2,6-dimethylmorpholino)-6-morpholinopyrimidine] | + (Cases where T/C (%) of the last day was less than 50% and U-assay of Mann-Whitney revealed significant difference with one-sided risk rate of 1% were evaluated to be effective (+)) | 35.7
6 | 146000 | 166 to 168 | 140 | COc1cccc2c1nc(C(F)F)n2-c1nc(N2CCOCC2)cc(N2CCOC(C)(C)C2)n1 [compound 2, 2-(2-difluoromethyl-4-methoxybenzimidazol-1-yl)-4-(2,2-dimethylmorpholino)-6-morpholinopyrimidine] | + (Cases where T/C (%) of the last day was less than 50% and U-assay of Mann-Whitney revealed significant difference with one-sided risk rate of 1% were evaluated to be effective (+)) | 28.8
7 |  | 203 to 205 |  | COc1cccc2c1nc(C(F)F)n2-c1nc(N2CCOCC2)cc(N2CCOCC2)n1 [compound 5, 2-(2-difluoromethyl-4-methoxybenzimidazol-1-yl)-4,6-dimorpholinopyrimidine] |  | 
8 |  | 235 to 237 |  | COc1cccc2c1nc(C(F)F)n2-c1nc(N2CCOCC2)nc(N2C[C@@H](C)O[C@@H](C)C2)n1 [compound 6, 2-(2-difluoromethyl-4-methoxybenzimidazol-1-yl)-4-(cis-2,6-dimethylmorpholino)-6-morpholino-1,3,5-triazine] |  | 
9 |  | 209 to 211 |  | COc1cccc2c1nc(C(F)F)n2-c1nc(N2CCOCC2)nc(N2CC(C)(C)OCC2(C)C)n1 [compound 7, 2-(2-difluoromethyl-4-methoxybenzimidazol-1-yl)-4-(2,2,5,5-tetramethylmorpholino)-6-morpholino-1,3,5-triazine] |  | 
10 |  | 188 to 190 |  | CCOc1cccc2c1nc(C(F)F)n2-c1nc(N2CCOCC2)cc(N2CCOCC2)n1 [compound 8, 2-(2-difluoromethyl-4-ethoxybenzimidazol-1-yl)-4,6-dimorpholinopyrimidine] |  | 
11 | 88000 | 114 to 116 |  | CCOc1cccc2c1nc(C(F)F)n2-c1nc(N2CCOCC2)cc(N2CCOC(C)(C)C2)n1 [compound 9, 2-(2-difluoromethyl-4-ethoxybenzimidazol-1-yl)-4-(2,2-dimethylmorpholino)-6-morpholinopyrimidine] |  | 
12 | 17000 |  | 150 | C[C@@H]1CN(c2cc(N3CCOCC3)nc(-n3c(C(F)F)nc4c(O)cccc43)n2)C[C@H](C)O1 [compound A, 2-(2-difluoromethyl-4-hydroxybenzimidazol-1-yl)-4-(cis-2,6-dimethylmorpholino)-6-morpholinopyrimidine] | − | 78.3
13 | 5000 |  | 90 | CC1(C)CN(c2cc(N3CCOCC3)nc(-n3c(C(F)F)nc4c(O)cccc43)n2)CCO1 [compound B, 2-(2-difluoromethyl-4-hydroxybenzimidazol-1-yl)-4-(2,2-dimethylmorpholino)-6-morpholinopyrimidine, reference compound] | − | 88.4
